The source made the active and inactive calls. No cut-off for these calls is given here.
Experiments:
[1] = test system: A549; test: Cytotoxicity against human A549 cells assessed as cell growth inhibition at 10 uM incubated for 48 hrs by MTT assay relative to control; type: functional
[2] = test system: A549; test: Cytotoxicity against human A549 cells assessed as cell growth inhibition incubated for 48 hrs by MTT assay; type: functional, cell-based; details: A549, 48 h
[3] = test system: A549; test: Induction of cell cycle arrest in human A549 cells assessed as accumulation at G2/M phase at 10 uM incubated for 48 hrs by PI staining based flow cytometry analysis; type: functional

| Structure (SMILES) | inhibition at 10 µM [1] [%] | IC50 [2] [µM] | Activity [3] |
| --- | --- | --- | --- |
| CCOC(=O)c1cccc2c3ccccc3n(-c3ncccn3)c12 | 50 |  |  |
| O=C(c1ccccc1Cl)c1cccc2c3ccccc3n(-c3ncccn3)c12 | 50 | 6.84 | Active |
| COc1cccc(C(=O)c2cccc3c4ccccc4n(-c4ncccn4)c23)c1 | 50 | 2.39 | Active |
| O=C(O)c1cccc2c3ccccc3n(-c3ncccn3)c12 |  | 15.5 |  |
| O=C(c1ccc(I)cc1)c1cccc2c3ccccc3n(-c3ncccn3)c12 |  | 12.5 | Active |
| Cc1ccc(C(=O)c2cccc3c4ccccc4n(-c4ncccn4)c23)cc1 | 50 | 10 | Active |
| O=C(c1cccs1)c1cccc2c3ccccc3n(-c3ncccn3)c12 | < 50 | 4.02 | Active |
| N#Cc1cccc(C(=O)c2cccc3c4ccccc4n(-c4ncccn4)c23)c1 | < 50 | 13.7 |  |
| O=C(c1ccc(Br)cc1)c1cccc2c3ccccc3n(-c3ncccn3)c12 | 50 | 7.5 | Active |
| O=C(c1ccc(OCc2ccccc2)cc1)c1cccc2c3ccccc3n(-c3ncccn3)c12 | < 50 | 2.15 |  |
| O=C(c1ccc(C(F)(F)F)cc1)c1cccc2c3ccccc3n(-c3ncccn3)c12 | 50 | 15.6 | Active |

— ChEMBL document CHEMBL5154761, “Design, synthesis, and evaluation of 9-(pyrimidin-2-yl)-9H-carbazole derivatives disrupting mitochondrial homeostasis in human lung adenocarcinoma” (Eur J Med Chem, 2022)
